“Also recorded” adds a separate entry of the source.
B1: IL-1β: mouse IL-1β (Sigma) injected via the tail vein at 100 ng/mouse (protein, UniProt P10749 118-269, looked up)
Interleukin-1 beta: VPIRQLHYRLRDEQQKSLVLSDPYELKALHLNGQNINQQVIFSMSFVQGEPSNDKIPVALGLKGKNLYLSCVMKDGTPTLQLESVDPKQYPKKKMEKRFVFNKIEVKSKVEFESAEFPNWYISTSQAEHKPVFLGNNSGQDIIDFTMESVSS

How the values were obtained:
peripheral leukocytes [1] = settings: mouse, in vivo
Procedure: Alkaline comet assay. To detect DNA strand breaks, as well as alkali labile sites in DNA, the alkaline comet assay was performed as described elsewhere (4). Frozen blood or single cell suspensions were thawed on ice and further diluted 1:15 in PBS before further sample preparation. After lysis and electrophoresis, gels were stained with SYBR Gold (Molecular Probes) and visualized under a fluorescent microscope (Olympus Ax70, Tokyo, Japan) at 10× magnification. Comet images were captured and analyzed with the CASP image analysis program (http://casp.sourceforge.net). The olive tail moment, which represents both tail length and fraction of DNA in the tail, was used for data collection and analysis, in which apoptotic cells were excluded under previously proposed criteria (4).
Injection of cytokines. Mouse TNF-α (Sigma) and/or mouse IL-1β (Sigma) were injected via the tail vein at 500 ng/mouse and 100 ng/mouse, respectively, dissolved in saline. Control animals received vehicle only. Peripheral blood was collected at 1 hr, 2 hrs, 4 hrs, and 24 hrs after injection for genotoxicity assays.

[2] = tested on: normochromatic erythrocytes; assay: Micronucleus assay after cytokine injection; format: in vivo, mouse; settings: 48 hours post-injection compared to before injection
Procedure: In vivo micronucleus assay. Micronucleus formation was determined in normochromatic erythrocytes as micronucleated normochromatic erythrocytes per 1000 normochromatic erythrocytes as described previously (1, 8).
Injection of cytokines. […] Control animals received vehicle only.

peripheral leukocytes [3] = assay: γ-H2AX immunofluorescence, DSS colitis; format: in vivo, mouse
Source text: (§1) Immunofluorescence. […] Samples were then processed on coverslips essentially as described elsewhere (26).

mice = assay: Disease activity index in DSS-induced experimental colitis; format: in vivo
Procedure: Induction of chemical colitis. […] Acute colitis was defined as a 7 day treatment, and chronic colitis as any further treatment including remission periods. Control animals received sterile acidified water only. Symptoms (weight loss, stool consistency, gross bleeding) were recorded daily for calculation of disease activity index (23).
Evaluation of Experimental Colitis. The disease activity index (DAI) is the average combined score of weight loss (0-4), stool consistency (0-4), and bleeding (0-4), used to score clinical symptoms (23).

erythroblasts = assay: In vivo micronucleus assay in Atm−/−, Atm+/− and wildtype mice with DSS colitis; set-up: species or system mouse; settings: all genotypes, more severe in Atm−/−
Procedure: In vivo micronucleus assay. […] At least 4000 mature erythrocytes were counted per animal, and the frequency of MN formation was calculated as the number of micronucleated erythrocytes per 1000 normochromatic erythrocytes.

peripheral blood T-cells = assay: Flow cytometry of activated T-cells (CD69, CD44) in peripheral blood, DSS colitis; format: in vivo, mouse; settings: in response to DSS treatment
Source text: Flow Cytometry. T cell populations were characterized for activation status (CD69 and CD44) and CD4 or CD8α expression using flow cytometry. Erythrocytes were immediately lysed with BD PharmLyse Lysis Buffer (BD Biosciences, San Diego, Calif.). After washing with Stain Buffer with 0.2% BSA (BD), cells were stained with FITC conjugated Hamster Anti-Mouse CD69, FITC conjugated Rat Anti-Mouse/Human CD44, R-PE conjugated Rat Anti-Mouse CD4, PerCP Rat Anti-Mouse CD8α, or appropriate negative isotype controls (BD Biosciences) for 30 min at 4° C. Cells were then washed and analyzed using BD FACScan. Fluorescence intensity was normalized to each respective isotype control antibody and data were analyzed with CellQuest® (BD Biosciences). Dead cells were excluded by gating on forward/side scatter. Marker expression was recorded either as percent positive of the absolute count of total T cells, or by median fluorescence intensity if the control and marker populations overlapped.

[4] = literature references; cited from earlier work
peripheral leukocytes [5] = assay: Alkaline comet assay with and without hOgg1 incubation, DSS colitis; format: in vivo, mouse
Source text: Blood collection. […] Identical blood samples were used for genotoxic endpoints as well as for cytokine expression.
Alkaline comet assay. […] Frozen blood was further diluted 1:15 in PBS before further preparation.
Determination of oxidative DNA damage. The enzyme hOgg1-modified comet assay was used for determination of oxidative DNA damage (25). […] (New England Biolabs, Ipswich, Mass.).

peripheral leukocytes [6] = assay: 8-oxoguanine and nitrotyrosine immunofluorescence, DSS colitis; format: in vivo, mouse; settings: DSS 7 days, 3% w/v; p<0.01
Source text: as §1
8-oxoguanine is an oxidative DNA lesion formed by reaction of hydroxyl radicals, metal hyrdroperoxides, or peroxynitrite with DNA, causing G:C to T:A transversions during replication (33). Nitrotyrosine is a biochemical marker for NO-induced peroxynitrite formation involving reactions with reactive oxygen and nitrogen species resulting in nitrative damage to proteins (34).

| Molecule | Sufficiency to induce genotoxicity to peripheral leukocytes (peripheral leukocytes [1]) | Time post-injection within which DNA damage was repaired (peripheral leukocytes [1]) [h] | Micronuclei formation in circulating normochromatic erythrocytes [2] | Percentage of cells positive for γ-H2AX nuclear foci (peripheral leukocytes [3]; after the first 7 day acute DSS treatment vs non-treated, p<0.01) | Percentage of cells positive for γ-H2AX nuclear foci (peripheral leukocytes [3]; later cycles until end of treatment vs non-treated, p<0.05) | Mortality (mice; after three cycles of DSS treatment, wildtype mice) | Start of rectal bleeding (mice; cycle 1 of 3% DSS treatment) [days] | Micronucleus formation in erythroblasts (toxicity of inflammation) (erythroblasts) | Proportion of activated (CD69+, CD44+) T-cells, Atm−/− vs wildtype mice (peripheral blood T-cells) | Mutagenicity / direct genotoxicity of DSS itself [4] | Mean olive tail moment (DNA single and double strand breaks, alkali-labile sites) (peripheral leukocytes [5]; DSS treated vs non-treated mice, end of each cycle, p<0.01) | Mean olive tail moment with hOgg1 incubation (oxidative base damage) (peripheral leukocytes [5]; after treatment cycles, treated vs hOgg1 incubated non-treated mice, p<0.05) | 8-oxoguanine and nitrotyrosine positive peripheral leukocytes (peripheral leukocytes [6]) |
| --- | --- | --- | --- | --- | --- | --- | --- | --- | --- | --- | --- | --- | --- |
| TNF-α | sufficient to induce genotoxicity | ≤ 24 | minimally yet significantly elevated | – | – | – | – | – | – | – | – | – | – |
| dextran sulfate sodium [DSS] | – | – | – | increased dramatically | remained elevated over non-treated animals until end of treatment | no mortalities were observed | 4 | evident as early as after the acute 7 day treatment | significantly larger proportion of these T-cells are activated | not directly genotoxic; also recorded: not a mutagen nor genotoxic | significantly higher olive tail moments at the end of each cycle | higher when incubated with hOgg1 after treatment cycles | significant increase in both 8-oxoguanine and nitrotyrosine |
| B1 | – | ≤ 24 | – | – | – | – | – | – | – | – | – | – | – |

Source: patent publication US8940491B2, “Genotoxicity as a biomarker for inflammation” (The Regents of the University of California, priority 2009, dated 2015)
